Data reported in US20050025705A1, “Thrombosis animal models and their use in drug discovery and development” (priority 2003, published 2005).
“And” between values parts separate entries of the source, which are not always exact repeats. Equal entries are not always repeated.

Tests used:
[1] = system: FeCl3-induced arterial thrombosis in C57BL/6 mice; assay: FeCl3-induced carotid artery thrombosis in mice, Doppler blood flow (Example 2); format: in vivo; conditions: for efficacy in blocking thrombus formation: relatively high FeCl3 concentrations, unless an extremely high drug concentration was used
Protocol: Mice were anesthetized with gas inhalation comprised of 30% oxygen (0.3 liter/min; Airgas East, Inc., Salem, N.H.) and 70% nitrous oxide (0.7 liter/min; Airgas East, Inc., Salem, N.H.). […] Louis, Mo.) to the adventitial surface of the carotid artery immediately proximal to the flow probe for 3 min and then removed. The carotid blood flow was monitored at 1, 5, 10, 20, 30 min or some times up to 60 min. Heparin was purchased from American Pharmaceutical Partners, Inc. (Los Angeles, Calif.); mice were infused with 10, 50, 200 and 1000 IU/kg, i.v. immediately prior to 2.5 or 5% FeCl3 treatment on the carotid artery. […] Aspirin (acetylsalicylic acid) and MRS2179 were purchased from Sigma. […] Data in text and figures are mean±standard errors for the indicated number (N) of animals.

[2] = system: 5% FeCl3-induced arterial thrombosis in C57BL/6 mice
Protocol: Adult mice (18-25 g, both male and female) were used for thrombosis study. Following anesthesia by pentobarbital (50 mg/kg, i.p.), an incision of the skin was made directly on top of the right common carotid artery region. The fascia was then blunt dissected and a segment of the […] common carotid artery was exposed. A Transonic flow probe (0.5 VB) was placed on the artery with gel to obtain the baseline flow readings (as time 0) via a Transonic […] Doppler flowmeter. Two pieces of filter paper (1×11⁄2 mm) pre-soaked with 5% FeCl3 solution were placed beneath and above the carotid artery for 3 min to induce thrombosis. The filter papers were removed and rinsed with saline. The blood flow was recorded every 5, 10, 20 and 30 min of FeCl3 treatment. […] Clopidogrel was administrated for two days. […] Data are illustrated as mean±standard errors using indicated number (N) of animals. Statistical comparisons were made by analysis of variance (ANOVA; Fisher's protected least squares difference) and values were considered to be significant at p<0.05.

[3] = system: tail bleeding time in C57BL/6 mice; assay: Mouse tail bleeding time
Protocol: Mice were anesthetized as described above and placed on a 37° C. heating pad. About 2-4 mm from the tip of mouse tail (in about 1 mm diameter) was cut with a disposable surgical blade. After transection, the tail was immediately placed into a 50-ml falcon tube filled with 37° C. saline and the bleeding time was recorded up to 30 min. Bleeding time over 30 min was considered as bleeding off scale.
Both thrombosis and bleeding studies were conducted within 2-4 hr after the second day of oral dosing.

[4] = cited from earlier work

In the case of `CNc1ncnc2c1ncn2[C@H]1C[C@H](OP(=O)(O)O)[C@@H](COP(=O)(O)O)O1` [MRS2179], the effective dose ([1]; 2.5% FeCl3-induced thrombosis, i.v.) is reported as 150 mg/kg, the “potency in blocking FeCl3-induced thrombosis” value ([1]; 2.5% FeCl3, compared with P2Y12 antagonists) is reported as “less potent” and the “efficacy in blocking thrombus formation” value [1] is reported as “failed to show efficacy”.

For `COC(=O)[C@H](c1ccccc1Cl)N1CCc2sccc2C1` [clopidogrel], the vascular patency ([1]; 2.5% FeCl3-induced thrombosis, 1 mg/kg p.o.) was “maintained in some”, the “vascular patency (animals in which maintained)” value ([1]; 2.5% FeCl3-induced thrombosis, 3 mg/kg p.o.) was “all” and the “dose required to show efficacy” value ([1]; 5% FeCl3-induced thrombosis, p.o.) was 100 mg/kg. For the same molecule, the “efficacy in blocking thrombus formation” value [1] was “failed to show efficacy”, the protection from thrombosis ([2]; 10 mg/kg) was “failed to protect” and the “animals that retained vascular patency” value ([2]; 100 mg/kg p.o.) was 6 out of 9. For the same molecule, the “AUC of the relative Doppler blood flow, over controls” value ([2]; 100 mg/kg p.o., p<0.01) was 3.7 fold, the antithrombotic effect ([2]; clinically relevant dose 1 mg/kg p.o.) was “No antithrombotic effect” and the “dose needed for antithrombotic effect” value ([2]; p.o.) was over 30 mg/kg. For the same molecule, the “prolongation in bleeding time” value ([3]; 1 mg/kg p.o.) was “no prolongation”, the “animals bleeding off scale (over 30 min)” value ([3]; 10 mg/kg p.o.) was 75% and the “increase in bleeding time” value ([3]; 10 mg/kg p.o., p<0.01, n=8) was 11 fold and 10.9 fold. The “animals bleeding off scale (over 30 min)” value ([3]; 30 mg/kg (data not shown)) was 100%.

For heparin, the clotting activity ([4]; at concentrations greater than 4 ug/ml) is listed as “not detectable”, the “activated partial thromboplastin time (aPTT) assay times” value ([4]; at therapeutic range 1 to less than 3 ug/ml plasma) is listed as 35 to 100 s and the vascular patency ([1]; 2.5% FeCl3-induced thrombosis, 200 IU/kg i.v.) is listed as “maintained”. The “dose required to inhibit thrombosis” value ([1]; 5% FeCl3-induced thrombosis, i.v.) was 1000 IU/kg and the “efficacy in blocking thrombus formation” value [1] was “failed to show efficacy”.

For `CSCCNc1nc(SCCC(F)(F)F)nc2c1ncn2[C@@H]1O[C@H](COP(=O)(O)OP(=O)(O)C(Cl)(Cl)P(=O)(O)O)[C@@H](O)[C@H]1O` [cangrelor], the “efficacy in 2.5% versus 5% FeCl3-induced thrombosis” value ([1]; 2.5% and 5% FeCl3) was “differential efficacy” and the “efficacy in blocking thrombus formation” value [1] was “failed to show efficacy”.

With `CC(=O)Oc1ccccc1C(=O)O` [aspirin, acetylsalicylic acid] the “effect in blocking thrombosis” value ([1]; 2.5% FeCl3-induced thrombosis, aspirin 10 and 30 mg/kg i.p.) was “Very little effect” and the “efficacy in blocking thrombus formation” value [1] was “failed to show efficacy”.
